Patent US11014884B2 (Global Blood Therapeutics, Inc., priority 2018, dated 2021)

Biological target: T1, hemoglobin (Homo sapiens, UniProt P69905)
T1 construct: from tissue; host or cells: whole blood (red blood cells)
Test: Whole blood assay: oxygen equilibrium curves (Hemox Analyzer), change in p50
Assay type: cell-based
Settings: whole blood 20% Hct (1 mM Hb), compound 1 mM, equimolar to hemoglobin, 1 h at 37° C.
Experimental: Oxygen equilibrium curves (OECs) were collected using a TCS Hemox Analyzer (TCS Scientific Company, New Hope, Pa., USA) to measure changes in the binding affinity of 02 to Hb. Whole blood was incubated for 1 h at 37° C. with the indicated compounds in an equimolar ratio of hemoglobin to compound and diluted into TES (2-[[1,3-dihydroxy-2-(hydroxymethyl)propan-2-yl]amino]ethanesulfonic acid)/saline buffer prior to measurements. For example, for whole blood at 20% hematocrit [Hct], which corresponds to 1 mM Hb, a compound concentration of 1 mM was used (for example, for compounds 1-53), and the incubated sample diluted 50- to 100-fold. The concentration for compound 54 was 1.7 mM and in equimolar ratio to hemoglobin. The diluted samples were then oxygenated with compressed air within the Hemox Analyzer, and the OECs were collected during deoxygenation as previously described (Guarnone et al., Haematologica, 1995, 80, 426-430). p50 (partial pressure of 02 at which Hb is 50% saturated with 02) values were obtained using a non-linear regression analysis. Percentage change in p50 [Δp50(%)] was calculated as follows: Δp50(%)=[(p50 of control)−p50 with compound)/p50 control]×100.

T1 sequence (P69905 2-142 limits assumed): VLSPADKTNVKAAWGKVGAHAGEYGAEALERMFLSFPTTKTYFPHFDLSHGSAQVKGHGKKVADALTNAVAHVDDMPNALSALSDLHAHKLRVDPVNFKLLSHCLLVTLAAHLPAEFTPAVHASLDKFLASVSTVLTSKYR
T1 sequence (P68871 2-147 partner limits assumed): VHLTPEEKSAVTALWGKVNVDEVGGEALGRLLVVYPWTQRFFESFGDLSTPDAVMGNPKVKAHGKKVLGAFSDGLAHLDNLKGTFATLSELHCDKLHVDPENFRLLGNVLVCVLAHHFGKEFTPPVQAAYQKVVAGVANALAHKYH

| SMILES | Delta-p50 (%) |
| --- | --- |
| Cc1ccc(-c2ncccc2COc2cccc(O)c2C=O)nc1C=O [Compound 41, 3′-[(2-formyl-3-hydroxyphenoxy)methyl]-5-methyl-[2,2′-bipyridine]-6-carbaldehyde] | 29.1 |
| O=Cc1ccc(F)cc1C(=O)N1CCCC[C@H]1COc1cccc(O)c1C=O [Compound 35, 4-fluoro-2-[(2S)-2-[(2-formyl-3-hydroxyphenoxy)methyl]piperidine-1-carbonyl]benzaldehyde] | 70 |
| O=Cc1c(O)cccc1C(=O)N1CCCC[C@H]1COc1ccc2c(c1C=O)CCO2 [Compound 44, 5-{[(2S)-1-(2-formyl-3-hydroxybenzoyl)piperidin-2-yl]methoxy}-2,3-dihydro-1-benzofuran-4-carbaldehyde] | 34.2 |
| O=Cc1cccc(C(=O)N2CCC[C@@H](COc3cccc(O)c3C=O)C2)c1 [Compound 27, 2-{[(3R)-1-(3-formylbenzoyl)piperidin-3-yl]methoxy}-6-hydroxybenzaldehyde] | 74 |
| O=Cc1ccccc1C(=O)N1CCCC[C@@H]1COc1cccc(O)c1C=O [Compound 17, 2-{[(2R)-1-(2-formylbenzoyl)piperidin-2-yl]methoxy}-6-hydroxybenzaldehyde] | 67 |
| CCOc1cccc(C(=O)N2CCOC[C@H]2COc2cccc(O)c2C=O)c1C=O [Compound 3, 2-ethoxy-6-[(3S)-3-[(2-formyl-3-hydroxyphenoxy)methyl]morpholine-4-carbonyl]benzaldehyde] | 73.6 |
| O=Cc1cccc(-c2ncccc2COc2cccc(O)c2C=O)n1 [Compound 10, 3′-[(2-formyl-3-hydroxyphenoxy)methyl]-[2,2′-bipyridine]-6-carbaldehyde] | 0.2 |
| COc1ccc(C=O)c(C(=O)N2CCCC[C@H]2COc2cccc(O)c2C=O)c1 [Compound 15, 2-[(2S)-2-[(2-formyl-3-hydroxyphenoxy)methyl]piperidine-1-carbonyl]-4-methoxybenzaldehyde] | 19 |
| COc1cccc(C(=O)N2CCOC[C@H]2COc2cccc(O)c2C=O)c1C=O [Compound 48, 2-[(3S)-3-[(2-formyl-3-hydroxyphenoxy)methyl]morpholine-4-carbonyl]-6-methoxybenzaldehyde] | 70.3 |
| O=Cc1cccc(-c2ccccc2COc2cccc(O)c2C=O)n1 [Compound 24, 6-{2-[(2-formyl-3-hydroxyphenoxy)methyl]phenyl}pyridine-2-carbaldehyde] | 11 |
| O=Cc1cccc(-c2cccnc2COc2cccc(O)c2C=O)n1 [Compound 32, 2′-[(2-formyl-3-hydroxyphenoxy)methyl]-[2,3′-bipyridine]-6-carbaldehyde] | 50 |
| COc1cccc(C(=O)N2CCCC[C@H]2COc2cccc(O)c2C=O)c1C=O [Compound 33, 2-[(2S)-2-[(2-formyl-3-hydroxyphenoxy)methyl]piperidine-1-carbonyl]-6-methoxybenzaldehyde] | 84 |
| O=Cc1ccc(Cl)cc1C(=O)N1CCCC[C@H]1COc1cccc(O)c1C=O [Compound 16, 4-chloro-2-[(2S)-2-[(2-formyl-3-hydroxyphenoxy)methyl]piperidine-1-carbonyl]benzaldehyde] | 39 |
| CCOc1cccc(C(=O)N2CCC[C@H]2COc2cccc(O)c2C=O)c1C=O [Compound 52, 2-ethoxy-6-[(2S)-2-[(2-formyl-3-hydroxyphenoxy)methyl]pyrrolidine-1-carbonyl]benzaldehyde] | 75.5 |
| O=Cc1cc(-c2ncccc2COc2cccc(O)c2C=O)ccn1 [Compound 9, 3-[(2-formyl-3-hydroxyphenoxy)methyl]-[2,4′-bipyridine]-2′-carbaldehyde] | 36.1 |
| O=Cc1ncccc1C(=O)N1CCCC[C@H]1COc1cccc(O)c1C=O [Compound 25, 3-[(2S)-2-[(2-formyl-3-hydroxyphenoxy)methyl]piperidine-1-carbonyl]pyridine-2-carbaldehyde] | 4 |
| Cc1cccc(C(=O)N2CCCC[C@@H]2COc2cccc(O)c2C=O)c1C=O [Compound 46, 2-[(2R)-2-[(2-formyl-3-hydroxyphenoxy)methyl]piperidine-1-carbonyl]-6-methylbenzaldehyde] | 69 |
| O=Cc1cccc(-c2ccncc2COc2cccc(O)c2C=O)n1 [Compound 42, 3′-[(2-formyl-3-hydroxyphenoxy)methyl]-[2,4′-bipyridine]-6-carbaldehyde] | 17.4 |

| SMILES | Delta-p50 (%) |
| --- | --- |
| O=Cc1ccccc1N1C(=O)CC[C@H]1COc1cccc(O)c1C=O [Compound 21, 2-{[(2S)-1-(2-formylphenyl)-5-oxopyrrolidin-2-yl]methoxy}-6-hydroxybenzaldehyde] | 23 |
| O=Cc1ccccc1C(=O)N1CCOC[C@H]1COc1cccc(O)c1C=O [Compound 36, 2-{[(3S)-4-(2-formylbenzoyl)morpholin-3-yl]methoxy}-6-hydroxybenzaldehyde] | 77 |
| O=Cc1ccccc1C(=O)N1CCC[C@@H](COc2cccc(O)c2C=O)C1 [Compound 26, 2-{[(3R)-1-(2-formylbenzoyl)piperidin-3-yl]methoxy}-6-hydroxybenzaldehyde] | 56 |
| O=Cc1ccc(C(=O)N2CCC[C@H](COc3cccc(O)c3C=O)C2)cc1 [Compound 23, 2-{[(3S)-1-(4-formylbenzoyl)piperidin-3-yl]methoxy}-6-hydroxybenzaldehyde] | 20 |
| CCOc1ccc(-c2ncccc2COc2cccc(O)c2C=O)nc1C=O [Compound 45, 5-ethoxy-3′-[(2-formyl-3-hydroxyphenoxy)methyl]-[2,2′-bipyridine]-6-carbaldehyde] | 55.7 |
| O=Cc1cnccc1C(=O)N1CCCC[C@H]1COc1cccc(O)c1C=O [Compound 53, 4-[(2S)-2-[(2-formyl-3-hydroxyphenoxy)methyl]piperidine-1-carbonyl]pyridine-3-carbaldehyde] | 71.9 |
| O=Cc1cc(-c2ccccc2COc2cccc(O)c2C=O)co1 [Compound 18, 4-{2-[(2-formyl-3-hydroxyphenoxy)methyl]phenyl}furan-2-carbaldehyde] | 17 |
| O=Cc1c(O)cccc1OC[C@@H]1CCCCN1C(=O)c1cccc(Cl)c1C=O [Compound 51, 2-chloro-6-[(2S)-2-[(2-formyl-3-hydroxyphenoxy)methyl]piperidine-1-carbonyl]benzaldehyde] | 65.5 |
| CC(C)Oc1cccc(C(=O)N2CCCC[C@H]2COc2cccc(O)c2C=O)c1C=O [Compound 40, 2-[(2S)-2-[(2-formyl-3-hydroxyphenoxy)methyl]piperidine-1-carbonyl]-6-(propan-2-yloxy)benzaldehyde] | 72.5 |
| Cc1cccc(C(=O)N2CCCC[C@H]2COc2cccc(O)c2C=O)c1C=O [Compound 34, 2-[(2S)-2-[(2-formyl-3-hydroxyphenoxy)methyl]piperidine-1-carbonyl]-6-methylbenzaldehyde] | 78 |
| O=Cc1nc(-c2ncccc2COc2cccc(O)c2C=O)cs1 [Compound 12, 4-{3-[(2-formyl-3-hydroxyphenoxy)methyl]pyridin-2-yl}-1,3-thiazole-2-carbaldehyde] | 2.9 |
| CC1(C)C[C@@H](COc2cccc(O)c2C=O)N(C(=O)c2ccccc2C=O)C1 [Compound 43, 2-{[(2S)-1-(2-formylbenzoyl)-4,4-dimethylpyrrolidin-2-yl]methoxy}-6-hydroxybenzaldehyde] | 70 |
| O=Cc1c(O)cccc1OC[C@@H]1COCCN1C(=O)c1cccc(O)c1C=O [Compound 4, (S)-2-((4-(2-formyl-3-hydroxybenzoyl)morpholin-3-yl)methoxy)-6-hydroxybenzaldehyde] | 30.9 |
| O=Cc1ccccc1C(=O)N1CCC[C@H](COc2cccc(O)c2C=O)C1 [Compound 29, 2-{[(3S)-1-(2-formylbenzoyl)piperidin-3-yl]methoxy}-6-hydroxybenzaldehyde] | 82 |
| CCOc1cccc(C(=O)N2CCCC[C@@H]2COc2cccc(O)c2C=O)c1C=O [Compound 50, 2-ethoxy-6-[(2R)-2-[(2-formyl-3-hydroxyphenoxy)methyl]piperidine-1-carbonyl]benzaldehyde] | 45.3 |
| O=Cc1c(O)cccc1OC[C@@H]1CCCCN1C(=O)c1cccc(F)c1C=O [Compound 47, 2-fluoro-6-[(2S)-2-[(2-formyl-3-hydroxyphenoxy)methyl]piperidine-1-carbonyl]benzaldehyde] | 70 |
| O=Cc1cccc(-c2cnccc2COc2cccc(O)c2C=O)n1 [Compound 31, 4′-[(2-formyl-3-hydroxyphenoxy)methyl]-[2,3′-bipyridine]-6-carbaldehyde] | 3.5 |
| O=Cc1ccc(C(=O)N2CCCC[C@H]2COc2cccc(O)c2C=O)cc1 [Compound 13, 2-{[(2S)-1-(4-formylbenzoyl)piperidin-2-yl]methoxy}-6-hydroxybenzaldehyde] | 45.4 |
